From PubChem BioAssay (NCI)
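Test compounds were applied to cells in 96-well plates for 48 hours at 5 doses. GI50: concentration for 50% inhibition of growth. The concentration for full growth arrest is given as TGI.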

Assays:
Assay in all cases: NCI tumour cell line growth inhibition, 48 h
[1] = tested on: 786-0 renal
[2] = tested on: A498 renal
[3] = tested on: A549 NSCLC
[4] = tested on: ACHN renal
[5] = tested on: BT-549 breast
[6] = tested on: CAKI-1 renal
[7] = tested on: CCRF-CEM leukemia
[8] = tested on: COLO 205 colon
[9] = tested on: DU-145 prostate
[10] = tested on: EKVX NSCLC
[11] = tested on: HCC-2998 colon
[12] = tested on: HCT-116 colon
[13] = tested on: HCT-15 colon
[14] = tested on: HL-60(TB) leukemia
[15] = tested on: HOP-62 NSCLC
[16] = tested on: HOP-92 NSCLC
[17] = tested on: HS 578T breast
[18] = tested on: HT29 colon
[19] = tested on: IGROV1 ovarian
[20] = tested on: K-562 leukemia
[21] = tested on: KM12 colon
[22] = tested on: LOX IMVI melanoma
[23] = tested on: M14 melanoma
[24] = tested on: MALME-3M melanoma
[25] = tested on: MCF7 breast
[26] = tested on: MDA-MB-231 breast
[27] = tested on: MDA-MB-435
[28] = tested on: MOLT-4 leukemia
[29] = tested on: NCI-H226 lung
[30] = tested on: NCI-H23 lung
[31] = tested on: NCI-H460 lung
[32] = tested on: NCI-H522 lung
[33] = tested on: NCI/ADR-RES ovarian
[34] = tested on: OVCAR-3 ovarian
[35] = tested on: OVCAR-4 ovarian
[36] = tested on: OVCAR-5 ovarian
[37] = tested on: OVCAR-8 ovarian
[38] = tested on: PC-3 prostate
[39] = tested on: RPMI-8226 leukemia
[40] = tested on: RXF 393 renal
[41] = tested on: SF-268 CNS
[42] = tested on: SF-295 CNS
[43] = tested on: SF-539 CNS
[44] = tested on: SK-MEL-2 melanoma
[45] = tested on: SK-MEL-28 melanoma
[46] = tested on: SK-MEL-5 melanoma
[47] = tested on: SK-OV-3 ovarian
[48] = tested on: SN12C renal
[49] = tested on: SNB-19 CNS
[50] = tested on: SNB-75 CNS
[51] = tested on: SR leukemia
[52] = tested on: SW-620 colon
[53] = tested on: T-47D breast
[54] = tested on: TK-10 renal
[55] = tested on: U251 CNS
[56] = tested on: UACC-257 melanoma
[57] = tested on: UACC-62 melanoma
[58] = tested on: UO-31 renal

`COc1ccc(/C=C/C(=O)c2ccc(Nc3nc(Nc4ccc(F)cc4)nc(Nc4ccc(Cl)cc4)n3)cc2)cc1` showed a GI50 [1] greater than 100 µM, a TGI [1] greater than 100 µM and a GI50 [2] greater than 100 µM. It also gave a TGI [2] greater than 100 µM, a GI50 [3] greater than 100 µM and a TGI [3] greater than 100 µM. For the same compound, the GI50 [4] was greater than 100 µM, the TGI [4] was greater than 100 µM and the GI50 [5] was greater than 100 µM. It also gave a TGI [5] greater than 100 µM, a GI50 [6] of 69.6 µM and a TGI [6] greater than 100 µM. For the same compound, the GI50 [7] was 37.4 µM, the TGI [7] was greater than 100 µM and the GI50 [8] was 24.2 µM. The TGI [8] was greater than 100 µM, the GI50 [9] was greater than 100 µM and the TGI [9] was greater than 100 µM. The GI50 [10] was greater than 100 µM, the TGI [10] was greater than 100 µM and the GI50 [11] was greater than 100 µM. For the same compound, the TGI [11] was greater than 100 µM, the GI50 [12] was 39.9 µM and the TGI [12] was greater than 100 µM. For the same compound, the GI50 [13] was 30.8 µM, the TGI [13] was greater than 100 µM and the GI50 [14] was 84 µM. For the same compound, the TGI [14] was greater than 100 µM, the GI50 [15] was greater than 100 µM and the TGI [15] was greater than 100 µM. For the same compound, the GI50 [16] was 31.1 µM, the TGI [16] was 88.7 µM and the GI50 [17] was 14.6 µM. For the same compound, the TGI [17] was 52.3 µM, the GI50 [18] was 29.6 µM and the TGI [18] was greater than 100 µM. It also gave a GI50 [19] of 17.7 µM, a TGI [19] greater than 100 µM and a GI50 [20] of 15.4 µM. It also gave a TGI [20] greater than 100 µM, a GI50 [21] greater than 100 µM and a TGI [21] greater than 100 µM. It also gave a GI50 [22] greater than 100 µM, a TGI [22] greater than 100 µM and a GI50 [23] greater than 100 µM. The TGI [23] was greater than 100 µM, the GI50 [24] was greater than 100 µM and the TGI [24] was greater than 100 µM. For the same compound, the GI50 [25] was 0.292 µM, the TGI [25] was 31.7 µM and the GI50 [26] was 29.5 µM. The TGI [26] was greater than 100 µM, the GI50 [27] was greater than 100 µM and the TGI [27] was greater than 100 µM. For the same compound, the GI50 [28] was 11.9 µM, the TGI [28] was greater than 100 µM and the GI50 [29] was greater than 100 µM. It also gave a TGI [29] greater than 100 µM, a GI50 [30] greater than 100 µM and a TGI [30] greater than 100 µM. It also gave a GI50 [31] of 9.91 µM, a TGI [31] of 84.3 µM and a GI50 [32] of 36.7 µM. The TGI [32] was greater than 100 µM, the GI50 [33] was greater than 100 µM and the TGI [33] was greater than 100 µM. For the same compound, the GI50 [34] was greater than 100 µM, the TGI [34] was greater than 100 µM and the GI50 [35] was greater than 100 µM. The TGI [35] was greater than 100 µM, the GI50 [36] was greater than 100 µM and the TGI [36] was greater than 100 µM. For the same compound, the GI50 [37] was greater than 100 µM, the TGI [37] was greater than 100 µM and the GI50 [38] was 30.6 µM. For the same compound, the TGI [38] was greater than 100 µM, the GI50 [39] was 6.91 µM and the TGI [39] was greater than 100 µM. For the same compound, the GI50 [40] was 13 µM, the TGI [40] was greater than 100 µM and the GI50 [41] was greater than 100 µM. The TGI [41] was greater than 100 µM, the GI50 [42] was greater than 100 µM and the TGI [42] was greater than 100 µM. It also gave a GI50 [43] of 2.23 µM, a TGI [43] of 19 µM and a GI50 [44] of 41.3 µM. It also gave a TGI [44] greater than 100 µM, a GI50 [45] greater than 100 µM and a TGI [45] greater than 100 µM. The GI50 [46] was 1.03 µM, the TGI [46] was 27.2 µM and the GI50 [47] was greater than 100 µM. For the same compound, the TGI [47] was greater than 100 µM, the GI50 [48] was greater than 100 µM and the TGI [48] was greater than 100 µM. For the same compound, the GI50 [49] was greater than 100 µM, the TGI [49] was greater than 100 µM and the GI50 [50] was 16.2 µM. The TGI [50] was 45.8 µM, the GI50 [51] was 4.68 µM and the TGI [51] was 38.2 µM. For the same compound, the GI50 [52] was greater than 100 µM, the TGI [52] was greater than 100 µM and the GI50 [53] was 72.6 µM. It also gave a TGI [53] greater than 100 µM, a GI50 [54] greater than 100 µM and a TGI [54] greater than 100 µM. For the same compound, the GI50 [55] was 49 µM, the TGI [55] was greater than 100 µM and the GI50 [56] was greater than 100 µM. It also gave a TGI [56] greater than 100 µM, a GI50 [57] greater than 100 µM and a TGI [57] greater than 100 µM. The GI50 [58] was 56.9 µM and the TGI [58] was greater than 100 µM.
